Reference: patent US11053204B2, “Pyrimidinyloxy benzene derivatives as herbicides” (FMC Corporation, priority 2015, dated 2021)

Legend:
Assay in all cases: Test C postemergence, plant response rating
Assay type in all cases: in vivo
[1] = test system: field poppy (Papaver rhoeas); conditions: for Field Poppy plant response rating: scale 0 to 100 (0 no effect, 100 complete control)
In short: (§1)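 Pre-emergence: seeds sown in loam soil–sand blend or silt loam and sprayed with test chemicals in a non-phytotoxic solvent mixture with surfactant. Post-emergence: plants 2 to 18 cm (1- to 4-leaf stage) in peat-based potting medium, same formulation. Greenhouse 13 to 15 d; visual rating 0 (no effect) to 100 (complete control) versus controls.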

[2] = test system: speedwell (bird's-eye speedwell, Veronica persica); conditions: for Speedwell plant response rating: scale 0 to 100 (0 no effect, 100 complete control)
In short: as §1

[3] = test system: buckwheat, wild (wild buckwheat, Polygonum convolvulus); conditions: for Buckwheat, Wild plant response rating: scale 0 to 100 (0 no effect, 100 complete control)
In short: as §1

[4] = test system: johnsongrass (Sorghum halepense); conditions: for Johnsongrass plant response rating: scale 0 to 100 (0 no effect, 100 complete control)
In short: as §1

[5] = test system: pigweed, palmer (palmer pigweed, Amaranthus palmeri); conditions: for Pigweed, Palmer plant response rating: scale 0 to 100 (0 no effect, 100 complete control)
In short: as §1

[6] = test system: geranium, cutleaf (cutleaf geranium, Geranium dissectum); conditions: for Geranium, Cutleaf plant response rating: scale 0 to 100 (0 no effect, 100 complete control)
In short: as §1

[7] = test system: Canada thistle (Cirsium arvense); conditions: for Canada Thistle plant response rating: scale 0 to 100 (0 no effect, 100 complete control)
In short: as §1

[8] = test system: field violet (Viola arvensis); conditions: for Field Violet plant response rating: scale 0 to 100 (0 no effect, 100 complete control)
In short: as §1

[9] = test system: wild poinsettia (Euphorbia heterophylla); conditions: for Poinsettia, Wild plant response rating: scale 0 to 100 (0 no effect, 100 complete control)
In short: as §1

[10] = test system: nightshade (eastern black nightshade, Solanum ptycanthum); conditions: for Nightshade plant response rating: scale 0 to 100 (0 no effect, 100 complete control)
In short: as §1

[11] = test system: windgrass (Apera spica-venti); conditions: for Windgrass plant response rating: 125 g ai/ha, scale 0 to 100 (0 no effect, 100 complete control)
In short: as §1

[12] = test system: surinam grass (Brachiaria decumbens); conditions: for Surinam Grass plant response rating: 125 g ai/ha, scale 0 to 100 (0 no effect, 100 complete control)
In short: as §1

SMILES: O=C(CCC(F)(F)C(F)(F)F)c1c(Br)cccc1Oc1ncc(Cl)cn1 [Compound 110]
- Plant response rating, Field Poppy ([1]; 16 g ai/ha, scale of 0 to 100): 85
- Plant response rating, Field Poppy ([1]; 31 g ai/ha, scale 0 to 100): 100
- Field Poppy plant response rating ([1]; 62 g ai/ha): 100
- Field Poppy plant response rating ([1]; 125 g ai/ha): 100
- Plant response rating, Speedwell ([2]; 16 g ai/ha, scale of 0 to 100): 60
- Plant response rating, Speedwell ([2]; 31 g ai/ha, scale 0 to 100): 95
- Speedwell plant response rating ([2]; 62 g ai/ha): 90
- Speedwell plant response rating ([2]; 125 g ai/ha): 95
- Plant response rating, Buckwheat, Wild ([3]; 16 g ai/ha, scale of 0 to 100): 85
- Plant response rating, Buckwheat, Wild ([3]; 31 g ai/ha, scale 0 to 100): 85
- Buckwheat, Wild plant response rating ([3]; 62 g ai/ha): 95
- Buckwheat, Wild plant response rating ([3]; 125 g ai/ha): 80
- Plant response rating, Johnsongrass ([4]; 16 g ai/ha, scale of 0 to 100): 5
- Plant response rating, Johnsongrass ([4]; 31 g ai/ha, scale 0 to 100): 10
- Johnsongrass plant response rating ([4]; 62 g ai/ha): 10
- Johnsongrass plant response rating ([4]; 125 g ai/ha): 15
- Plant response rating, Pigweed, Palmer ([5]; 16 g ai/ha, scale of 0 to 100): 75
- Plant response rating, Pigweed, Palmer ([5]; 31 g ai/ha, scale 0 to 100): 95
- Pigweed, Palmer plant response rating ([5]; 62 g ai/ha): 98
- Pigweed, Palmer plant response rating ([5]; 125 g ai/ha): 95
- Plant response rating, Geranium, Cutleaf ([6]; 16 g ai/ha, scale of 0 to 100): 5
- Plant response rating, Geranium, Cutleaf ([6]; 31 g ai/ha, scale 0 to 100): 30
- Geranium, Cutleaf plant response rating ([6]; 62 g ai/ha): 40
- Geranium, Cutleaf plant response rating ([6]; 125 g ai/ha): 60
- Plant response rating, Canada Thistle ([7]; 16 g ai/ha, scale of 0 to 100): 65
- Plant response rating, Canada Thistle ([7]; 31 g ai/ha, scale 0 to 100): 90
- Canada Thistle plant response rating ([7]; 62 g ai/ha): 98
- Canada Thistle plant response rating ([7]; 125 g ai/ha): 95
- Plant response rating, Field Violet ([8]; 16 g ai/ha, scale of 0 to 100): 80
- Plant response rating, Field Violet ([8]; 31 g ai/ha, scale 0 to 100): 95
- Field Violet plant response rating ([8]; 62 g ai/ha): 95
- Field Violet plant response rating ([8]; 125 g ai/ha): 100
- Plant response rating, Poinsettia, Wild ([9]; 16 g ai/ha, scale of 0 to 100): 40
- Plant response rating, Poinsettia, Wild ([9]; 31 g ai/ha, scale 0 to 100): 65
- Poinsettia, Wild plant response rating ([9]; 62 g ai/ha): 80
- Poinsettia, Wild plant response rating ([9]; 125 g ai/ha): 90
- Plant response rating, Nightshade ([10]; 16 g ai/ha, scale of 0 to 100): 75
- Plant response rating, Nightshade ([10]; 31 g ai/ha, scale 0 to 100): 85
- Nightshade plant response rating ([10]; 62 g ai/ha): 95
- Nightshade plant response rating ([10]; 125 g ai/ha): 98
- Plant response rating, Windgrass ([11]; 16 g ai/ha, scale of 0 to 100): 20
- Plant response rating, Windgrass ([11]; 31 g ai/ha, scale 0 to 100): 25
- Windgrass plant response rating [11]: 30
- Plant response rating, Surinam Grass ([12]; 16 g ai/ha, scale of 0 to 100): 15
- Plant response rating, Surinam Grass ([12]; 31 g ai/ha, scale 0 to 100): 20
- Surinam Grass plant response rating [12]: 25

SMILES: FC(F)(F)CCCCc1c(Cl)cccc1Oc1ncc(Cl)cn1 [Compound 137]
- Plant response rating, Field Poppy ([1]; 16 g ai/ha, scale of 0 to 100): 85
- Plant response rating, Field Poppy ([1]; 31 g ai/ha, scale 0 to 100): 95
- Field Poppy plant response rating ([1]; 62 g ai/ha): 100
- Field Poppy plant response rating ([1]; 125 g ai/ha): 100
- Plant response rating, Speedwell ([2]; 16 g ai/ha, scale of 0 to 100): 75
- Plant response rating, Speedwell ([2]; 31 g ai/ha, scale 0 to 100): 80
- Speedwell plant response rating ([2]; 62 g ai/ha): 100
- Speedwell plant response rating ([2]; 125 g ai/ha): 100
- Plant response rating, Buckwheat, Wild ([3]; 16 g ai/ha, scale of 0 to 100): 70
- Plant response rating, Buckwheat, Wild ([3]; 31 g ai/ha, scale 0 to 100): 75
- Buckwheat, Wild plant response rating ([3]; 62 g ai/ha): 98
- Buckwheat, Wild plant response rating ([3]; 125 g ai/ha): 90
- Plant response rating, Johnsongrass ([4]; 16 g ai/ha, scale of 0 to 100): 5
- Plant response rating, Johnsongrass ([4]; 31 g ai/ha, scale 0 to 100): 10
- Johnsongrass plant response rating ([4]; 62 g ai/ha): 10
- Johnsongrass plant response rating ([4]; 125 g ai/ha): 25
- Plant response rating, Pigweed, Palmer ([5]; 16 g ai/ha, scale of 0 to 100): 20
- Plant response rating, Pigweed, Palmer ([5]; 31 g ai/ha, scale 0 to 100): 45
- Pigweed, Palmer plant response rating ([5]; 62 g ai/ha): 50
- Pigweed, Palmer plant response rating ([5]; 125 g ai/ha): 70
- Plant response rating, Geranium, Cutleaf ([6]; 16 g ai/ha, scale of 0 to 100): 10
- Plant response rating, Geranium, Cutleaf ([6]; 31 g ai/ha, scale 0 to 100): 25
- Geranium, Cutleaf plant response rating ([6]; 62 g ai/ha): 30
- Geranium, Cutleaf plant response rating ([6]; 125 g ai/ha): 35
- Plant response rating, Canada Thistle ([7]; 16 g ai/ha, scale of 0 to 100): 75
- Plant response rating, Canada Thistle ([7]; 31 g ai/ha, scale 0 to 100): 85
- Canada Thistle plant response rating ([7]; 62 g ai/ha): 98
- Canada Thistle plant response rating ([7]; 125 g ai/ha): 100
- Plant response rating, Field Violet ([8]; 16 g ai/ha, scale of 0 to 100): 65
- Plant response rating, Field Violet ([8]; 31 g ai/ha, scale 0 to 100): 70
- Field Violet plant response rating ([8]; 62 g ai/ha): 85
- Field Violet plant response rating ([8]; 125 g ai/ha): 85
- Plant response rating, Poinsettia, Wild ([9]; 16 g ai/ha, scale of 0 to 100): 15
- Plant response rating, Poinsettia, Wild ([9]; 31 g ai/ha, scale 0 to 100): 65
- Poinsettia, Wild plant response rating ([9]; 62 g ai/ha): 65
- Poinsettia, Wild plant response rating ([9]; 125 g ai/ha): 75
- Plant response rating, Nightshade ([10]; 16 g ai/ha, scale of 0 to 100): 60
- Plant response rating, Nightshade ([10]; 31 g ai/ha, scale 0 to 100): 80
- Nightshade plant response rating ([10]; 62 g ai/ha): 90
- Nightshade plant response rating ([10]; 125 g ai/ha): 90
- Plant response rating, Windgrass ([11]; 16 g ai/ha, scale of 0 to 100): 10
- Plant response rating, Windgrass ([11]; 31 g ai/ha, scale 0 to 100): 10
- Windgrass plant response rating [11]: 45
- Plant response rating, Surinam Grass ([12]; 16 g ai/ha, scale of 0 to 100): 5
- Plant response rating, Surinam Grass ([12]; 31 g ai/ha, scale 0 to 100): 10
- Surinam Grass plant response rating [12]: 20
